In ChEMBL document CHEMBL1126610, “Amidinium cation as a mimic of allylic carbocation: synthesis and squalene synthetase inhibitory activity of an amidinium analog of a carbocation intermediate” (J Med Chem, 1993):

Legend:
Squalene synthase [1] = target: T1, Squalene synthase (Rattus norvegicus, UniProt Q02769); assay: Inhibitory activity against squalene synthetase in rat liver microsomal assay; assay type: microsomes
T1 sequence (Q02769 whole entry): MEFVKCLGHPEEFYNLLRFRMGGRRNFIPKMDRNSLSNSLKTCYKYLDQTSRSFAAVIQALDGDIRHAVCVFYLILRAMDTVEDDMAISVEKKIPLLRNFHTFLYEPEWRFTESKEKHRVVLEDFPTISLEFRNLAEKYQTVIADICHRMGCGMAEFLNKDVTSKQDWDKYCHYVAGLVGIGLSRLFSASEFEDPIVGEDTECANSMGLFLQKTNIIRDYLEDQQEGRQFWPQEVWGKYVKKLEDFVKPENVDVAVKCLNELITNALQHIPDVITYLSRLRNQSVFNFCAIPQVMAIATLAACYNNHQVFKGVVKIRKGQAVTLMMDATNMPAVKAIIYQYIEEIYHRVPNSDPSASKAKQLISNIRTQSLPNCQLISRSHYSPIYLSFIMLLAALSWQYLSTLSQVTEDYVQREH

Squalene synthase [2] = target: T1, Squalene synthase; assay: Inhibitory activity against squalene synthetase in the presence of inorganic pyrophosphate in rat liver microsomal assay; assay type: microsomes

With `CC(C)=CCC/C(C)=C/CC/C(C)=C/C/N=C/N(C)CC/C=C(\C)CCC=C(C)C` the IC50 (Squalene synthase [1]) was 6.9 µM and the IC50 (Squalene synthase [2]) was 0.1 µM.
